Reference: patent publication US5500414A, “Derivatives of peptides usable as inhibitors of bacterial collagenases” (Commissariat a l'Energie Atomique, priority 1991, dated 1996)

Molecular target: bacterial collagenase
Assay: Inhibition of bacterial collagenase; Ki from dissociation and association rate constants, substrate Fa--Leu--Gly--Pro--Ala
Type: biochemical, Empedobacterium collagenolyticum
Settings: ratio Koff/Kon, slow binding inhibitors, pH7 Tricine buffer
Procedure: The activities of the different compounds A, B, C and D were determined on the one hand by measuring the association rate constant of the inhibitors to collagenase by the method of Morrison, J. & Walsh, C. T., 1987, Adv., Enzymol. Relat. Aeras Mol. Biol. applied in the case where the inhibitors are of the slow binding type and on the other hand by measuring the dissociation rate constants of the inhibitors of the enzyme--inhibitor complex. In this case, after allowing the collagenase to preincubate in the presence of an inhibitor excess, the thus formed enzyme--inhibitor complex is purified by gel filtration. The solution containing the purified complex is then diluted by a factor of 10,000 in a reference buffer and then, as a function of time, measurement takes place of the return of the activity of the collagenase, which represents the dissociation of the inhibitor of the enzyme--inhibitor complex.
The inhibition constants given in the table correspond to the ratio of the dissociation rate constants Koff and the association rate constants Kon measured in this way. In all the activity measurement experiments we used as the synthetic substrate Fa--Leu--Gly--Pro--Ala in a pH7 Tricine buffer. The source of the bacterial collagenase used was the strain Empedobacterium collagenolyticum.

Row | Substance | Ki
1 | Z,D,L-Phe*PCH2DL-Ala°ProNle°, 2Na^+ [F] | 2350 nM
2 | Z--D,LPhe*--PO2 CH2 --CH2 --CO--Pro--Nle*,2Na^+ [Compound A] | 12 nM
3 | Z--Gly--Pro--Phe*--PO(OH)--CH2 --CH2 --CO--Pro--Nle*2Na^+ | 0.4 nM
4 | Z--Pro--Phe*--PO(OH)--CH2 --CH2 --CO--Pro--Nle* 2Na^+ [Compound B] | 80 nM
